Laboratory results published in patent US20040014209A1, “Compositions and methods for modulating cell differentiation” (priority 2002, published 2004).

How the values were obtained:
Wnt8 = biological target: T1, Wnt8 (Xenopus laevis, UniProt P28026); test: Block of Wnt8 induction of Siamois in animal caps; type: cell-based; settings: RT-PCR at stage 10.5
T1 construct: expressed in transfected cells; host or cells: Xenopus laevis embryos (mRNA injection at the two-cell stage), animal caps isolated at stage 9
T1 sequence (P28026 23-358): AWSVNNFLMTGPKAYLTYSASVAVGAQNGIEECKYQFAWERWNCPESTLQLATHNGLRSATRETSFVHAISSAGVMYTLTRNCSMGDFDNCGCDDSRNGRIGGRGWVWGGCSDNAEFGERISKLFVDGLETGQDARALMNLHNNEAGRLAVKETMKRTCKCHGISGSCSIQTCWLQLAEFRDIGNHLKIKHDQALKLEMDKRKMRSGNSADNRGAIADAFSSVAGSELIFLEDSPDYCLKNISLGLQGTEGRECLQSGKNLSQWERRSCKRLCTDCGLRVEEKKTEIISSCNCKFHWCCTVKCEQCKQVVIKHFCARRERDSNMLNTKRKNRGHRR
Description: FIG. 6. dkk-1 and crescent, but not frzb, induce cardiac specific gene expression in noncardiogenic tissue. (A) mRNAs encoding various Wnt and BMP antagonists were injected equatorially into ventral blastomeres at the four-cell stage. Ventral marginal zone (VMZ) tissue was then explanted from Xenopus laevis at stage 10 and cultured until analyzed by RT-PCR for gene expression at stage 30 (see Materials and Methods). (B) Injection of dkk-1 or crescent induced both markers of cardiac mesoderm (Tbx5 and Nkx2.5) and heart muscle-specific genes (cardiac isoform of troponin-I, Tnlc, and myosin heavy chain-α, MHCα) in VMZ tissue. frzb, in contrast, induced muscle actin (m. actin), which is primarily a skeletal muscle marker, but not cardiac specific gene expression. […] Wnt8 and Wnt antagonist mRNAs were injected into the animal region of two-cell-stage embryos and caps were isolated at stage 9, cultured, and processed for RT-PCR at stage 10.5 (F). […] EF1α expression is shown as a control for the RT reaction in all cases.
The reason for the difference in doses of dkk-1 and crescent mRNA required to induce muscle actin and the cardiac-specific markers was explored further by evaluating their relative ability to block Siamois induction by Wnt8 (FIG. 6F, G). […]

[1] = tested on: posterior lateral plate (PLP) mesoderm explants; test: Cardiac induction in posterior lateral plate (PLP) mesoderm explants; type: cell-based, chick; settings: PLP mesoderm cocultured with transfected COS cells; RT-PCR
Source text: (§1) As crescent is expressed in anterior endoderm at approximately the stage expected for a heart-inducing factor, we investigated whether this Wnt inhibitor could induce the formation of heart muscle in explanted gastrula-stage posterior tissues. We made a replication-competent RCAS-crescent retrovirus and examined whether viral crescent expression can substitute for anterior endoderm in the cardiac induction assay. Explants of either PLP-mesoderm or PPS were infected with RCAS viruses encoding either crescent (RCAS-crescent) or alkaline phosphatase (RCAS-AP).
(§2) Eggs were incubated to the given stage (Hamburger and Hamilton 1951), and tissues were dissected with tungsten needles in Tyrodes solution using 1% agar dishes as a base. Serum-free medium containing insulin, transferrin, and selenium was adapted from Stern and Hauschka (1995) and supplemented with 2% chick embryo extract (Life Technologies). Virally infected explants were incubated on ice with viral supernatant diluted 1:1 with culture medium for 1-2 h, then cultured overnight in a sandwich of 35% collagen pads and overlaid with the above concentration of viral supernatant and medium containing 8 μg/mL polybrene. The following day, 0.25 mL of culture medium was added to each well. Anterior endoderm and COS cell cocultures were carried out on 2-μ pore size Nucleopore filters floating on culture medium. […]

[2] = tested on: posterior primitive streak (PPS) explants; test: Cardiac induction in posterior primitive streak (PPS) explants; type: cell-based, chick; settings: PPS cocultured with transfected COS cells; RT-PCR
Source text: as §1, §2

In the case of dkk-1, the “Wnt8 induction of Siamois” value (Wnt8) is reported as “block Wnt8 induction of Siamois”, the “Cardiac gene expression (Nkx-2.5, CMHC1)” value [1] is reported as “induced both Nkx2.5 and CMHC1” and the “Cardiac gene expression (Nkx-2.5, CMHC1)” value [2] is reported as “failed to activate cardiac gene expression”.
